The record followed here is PubChem BioAssay AID296 (DTP/NCI, 2004).

This experiment deals with MX-1 breast xenograft, nude mice, tumor weight T/C. In words: NCI In Vivo Anticancer Drug Screen. Data for tumor model Human Mammary Carcinoma MX-1 Xenograft (intrarenal inoculation) in NU/NU Swiss (nude) mice. To be noted: endpoint: mean tumor weight change, higher = larger tumour. An outline of the steps:
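Compound dosed to mice with transplantable tumor; vehicle group as control. Endpoint survival or tumour size, reported as T/C.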
On the technique in general: Xenograft models place foreign cells or tissue in a host animal.

[1] abbreviates: dose: 150.0 mg/kg/injection, schedule: Q04DX003 (sc), vehicle: saline.
The mark [2] stands for this setting: dose: 300.0 mg/kg/injection, schedule: Q04DX003 (sc), vehicle: saline.
[3] abbreviates: dose: 600.0 mg/kg/injection, schedule: Q04DX003 (sc), vehicle: saline.
The mark [4] stands for this setting: dose: 1200.0 mg/kg/injection, schedule: Q04DX003 (sc), vehicle: saline.
The mark [5] stands for this setting: dose: 8.0 mg/kg/injection, schedule: Q04DX003 (sc), vehicle: saline.
Where [6] appears, read: dose: 16.0 mg/kg/injection, schedule: Q04DX003 (sc), vehicle: saline.
Where [7] appears, read: dose: 100.0 mg/kg/injection, schedule: Q04DX003 (sc), vehicle: saline with Tween-80.
Where [8] appears, read: dose: 2.0 mg/kg/injection, schedule: Q01DX010 (sc), vehicle: saline.

Values joined by “and” are separate entries in the source; they are usually repeats but may differ in a detail not shown here. Equal entries are not always repeated. Records with an inconclusive call do not appear.

For the compound `C=C(C)[C@@H]1CCc2c(O)c(O)c(=O)cc(C)c2C1`, the T/C reads like this: under setting [1], 91 % of control; under setting [2], 107 % of control; under setting [3], 89 % of control; under setting [4], 98 % of control.
`Cc1c(N)nc(C(CC(N)=O)NCC(N)C(N)=O)nc1C(=O)NC(C(=O)NC(C)C(O)CC(=O)NC(C(=O)NC(OC1OC(C)C(N)C(O)C1O)C(O)c1nc(-c2nc(C(=O)NCCCC(N)CC(=O)NCCCNCCCCN)cs2)cs1)C(C)O)C(OC1OC(CO)C(O)C(O)C1OC1OC(CO)C(O)C(OC(N)=O)C1O)c1cnc[nH]1` (stereo unspecified): the T/C by setting is: under setting [5], 47 % of control; under setting [6], 40 % of control.
As to `O=c1[nH]cc(F)c(=O)[nH]1`, the T/C reads like this: (dose: 10.0 mg/kg/injection, schedule: Q01DX010 (sc), vehicle: saline) 67 % of control and 90 % of control; (dose: 50.0 mg/kg/injection, schedule: Q04DX003 (sc), vehicle: saline) 44 % of control and 54 % of control and 55 % of control; (dose: 100.0 mg/kg/injection, schedule: Q04DX003 (sc), vehicle: saline) 13 % of control.
Take `C[n+]1cccc(NC(=O)c2ccc(NC(=O)C34CCC(C(=O)Nc5ccc(C(=O)Nc6ccc[n+](C)c6)cc5)(CC3)CC4)cc2)c1`: the T/C (dose: 12.5 mg/kg/injection, schedule: Q04DX003 (sc), vehicle: saline with Tween-80) is 118 % of control; the T/C (dose: 25.0 mg/kg/injection, schedule: Q04DX003 (sc), vehicle: saline with Tween-80) is 64 % of control; the T/C (dose: 50.0 mg/kg/injection, schedule: Q04DX003 (sc), vehicle: saline with Tween-80) is 35 % of control; the T/C under setting [7] was 27 % of control.
With `CC(C)CC(NC(=O)CF)C(=O)O` (stereo unspecified), the T/C was 92 % of control (dose: 10.0 mg/kg/injection, schedule: Q04DX003 (sc), vehicle: saline) and 89 % of control (dose: 20.0 mg/kg/injection, schedule: Q04DX003 (sc), vehicle: saline).
Consider `O=c1[nH]c(=O)c2nc(-c3cccnc3)cnc2[nH]1`, for which, where the note is “dose: 200.0 mg/kg/injection, schedule: Q04DX003 (sc), vehicle: Klucel (hydroxypropylcellulose) (HPC)”, the T/C is 36 % of control.
Take `CC(=O)OCC1OC(n2ccc(N)nc2=O)C(OC(C)=O)C1OC(C)=O` (stereo unspecified): the T/C (dose: 150.0 mg/kg/injection, schedule: Q04DX003 (sc), vehicle: suspension in saline) was 89 % of control; the T/C under setting [2] was 107 % of control; the T/C under setting [3] was 82 % of control; the T/C under setting [4] is 84 % of control; the T/C (dose: 2400.0 mg/kg/injection, schedule: Q04DX003 (sc), vehicle: suspension in saline) is 14 % of control.
On to `c1cc2c(c(CC3CO3)c1CC1CO1)OCCOCCOCCOCCO2` (stereo unspecified), for which the T/C reads like this: (dose: 75.0 mg/kg/injection, schedule: Q04DX003 (ip), vehicle: saline + alcohol) 57 % of control; (dose: 150.0 mg/kg/injection, schedule: Q04DX003 (ip), vehicle: saline + alcohol) 65 % of control; (dose: 300.0 mg/kg/injection, schedule: Q04DX003 (ip), vehicle: saline + alcohol) 78 % of control.
Turning to `O=C(O)Cc1cccc2c(=O)cc(-c3ccccc3)oc12`, the T/C (dose: 100.0 mg/kg/injection, schedule: Q04DX003 (ip), vehicle: suspension in saline) is 75 % of control.
In the case of `CNc1cccnc1/C=N/NC(N)=S`, the T/C runs as follows: (dose: 300.0 mg/kg/injection, schedule: Q04DX003 (sc), vehicle: saline with Tween-80) 114 % of control; (dose: 600.0 mg/kg/injection, schedule: Q04DX003 (sc), vehicle: saline with Tween-80) 61 % of control; (dose: 1200.0 mg/kg/injection, schedule: Q04DX003 (sc), vehicle: saline with Tween-80) 55 % of control; (dose: 2400.0 mg/kg/injection, schedule: Q04DX003 (sc), vehicle: saline with Tween-80) 77 % of control.
Consider `CNC(=O)/C=C/C1=CN2C(=O)c3ccc(C)c(O)c3NC(OC)C2C1` (stereo unspecified), for which the T/C runs as follows: (dose: 0.2 mg/kg/injection, schedule: Q04DX003 (sc), vehicle: saline) 82 % of control; (dose: 0.4 mg/kg/injection, schedule: Q04DX003 (ip), vehicle: saline) 18 % of control and 21 % of control; (dose: 1.6 mg/kg/injection, schedule: Q04DX003 (sc), vehicle: saline) 3 % of control.
For the compound `O=C(NO)c1cc(O)c(O)c(O)c1`, the T/C (dose: 200.0 mg/kg/injection, schedule: Q04DX003 (sc), vehicle: distilled water + Tween-80) was 64 % of control; the T/C (dose: 400.0 mg/kg/injection, schedule: Q04DX003 (sc), vehicle: distilled water + Tween-80) is 109 % of control; the T/C (dose: 800.0 mg/kg/injection, schedule: Q04DX003 (sc), vehicle: distilled water + Tween-80) was 122 % of control.
Turning to `O=C(O[Si](Cc1ccccc1)(Cc1ccccc1)Cc1ccccc1)N(CCCl)CCCl`, the T/C reads like this: under setting [7], 78 % of control; (dose: 200.0 mg/kg/injection, schedule: Q04DX003 (sc), vehicle: saline with Tween-80) 29 % of control.
In the case of `c1cc2n(n1)CCN2`, the T/C (dose: 50.0 mg/kg/injection, schedule: Q01DX010 (sc), vehicle: saline) was 75 % of control and 77 % of control.
Turning to `c1ccc([Te][Te]c2ccccc2)cc1`, the T/C is, setting by setting: (dose: 75.0 mg/kg/injection, schedule: Q04DX003 (ip), vehicle: saline with Tween-80) 117 % of control; (dose: 150.0 mg/kg/injection, schedule: Q04DX003 (ip), vehicle: saline with Tween-80) 80 % of control; (dose: 300.0 mg/kg/injection, schedule: Q04DX003 (ip), vehicle: saline with Tween-80) 91 % of control.
For the compound `CS(=O)(=O)OCCCNCCCOS(C)(=O)=O`, the T/C (dose: 18.75 mg/kg/injection, schedule: Q04DX003 (sc), vehicle: saline) was 61 % of control; the T/C (dose: 75.0 mg/kg/injection, schedule: Q04DX003 (sc), vehicle: saline) was 6 % of control and 7 % of control; the T/C under setting [1] is 1 % of control.
For the compound `C1CN2CCC1CC2`, the T/C (dose: 4.69 mg/kg/injection, schedule: Q04DX003 (sc), vehicle: saline with Tween-80) is 112 % of control and the T/C (dose: 9.38 mg/kg/injection, schedule: Q04DX003 (sc), vehicle: saline with Tween-80) is 93 % of control.
Consider `CN(C)CCN1C(=O)c2cccc3cc([N+](=O)[O-])cc(c23)C1=O`, for which the T/C reads like this: (dose: 9.0 mg/kg/injection, schedule: Q04DX003 (sc), vehicle: saline with Tween-80) 52 % of control; (dose: 18.0 mg/kg/injection, schedule: Q04DX003 (sc), vehicle: saline with Tween-80) 43 % of control; (dose: 36.0 mg/kg/injection, schedule: Q04DX003 (sc), vehicle: saline with Tween-80) 55 % of control.
For the compound `CC[C@H]1CN2CCc3cc(OC)c(OC)cc3[C@@H]2C[C@@H]1C[C@H]1NCCc2cc(OC)c(OC)cc21`, the T/C by setting is: under setting [8], 114 % of control; (dose: 4.0 mg/kg/injection, schedule: Q01DX010 (sc), vehicle: saline) 108 % of control.
Consider `CC[C@@]1(O)C(=O)OCc2c1cc1n(c2=O)Cc2cc3cc(O)ccc3nc2-1`, for which the T/C by setting is: under setting [5], -98 % of control; under setting [6], -100 % of control; (dose: 32.0 mg/kg/injection, schedule: Q04DX003 (sc), vehicle: saline) -100 % of control; (dose: 32.0 mg/kg/injection, schedule: Q04DX003 (sc), vehicle: suspension in saline) -100 % of control; (dose: 64.0 mg/kg/injection, schedule: Q04DX003 (sc), vehicle: saline) -100 % of control; (dose: 64.0 mg/kg/injection, schedule: Q04DX003 (sc), vehicle: suspension in saline) -100 % of control. Moreover, the T/C (dose: 128.0 mg/kg/injection, schedule: Q04DX003 (sc), vehicle: suspension in saline) was -100 % of control.
With `CC(Cc1ccc(O)c(O)c1)C(C)Cc1ccc(O)c(O)c1` (stereo unspecified), the T/C reads like this: (dose: 150.0 mg/kg/injection, schedule: Q04DX003 (sc), vehicle: saline + alcohol) 109 % of control; (dose: 300.0 mg/kg/injection, schedule: Q04DX003 (sc), vehicle: saline + alcohol) 92 % of control; (dose: 1200.0 mg/kg/injection, schedule: Q04DX003 (sc), vehicle: saline + alcohol) 92 % of control.
Turning to `COc1cccc2c1C(=O)c1c(O)c3c(c(O)c1C2=O)C[C@@](O)(C(=O)CO)C[C@@H]3OC1CC(N(C)C)C(O)C(C)O1` (stereo partly specified), the T/C is, setting by setting: (dose: 3.0 mg/kg/injection, schedule: Q01DX010 (sc), vehicle: water) 211 % of control; (dose: 6.0 mg/kg/injection, schedule: Q01DX010 (sc), vehicle: water) 227 % of control.
Regarding `Cc1c(N)nc(C(CC(N)=O)NCC(N)C(N)=O)nc1C(=O)NC(C(=O)NC(C)C(O)C(C)C(=O)NC(C(=O)NCCc1nc(-c2nc(C(=O)NCCCNC(C)c3ccccc3)cs2)cs1)C(C)O)C(OC1OC(CO)C(O)C(O)C1OC1OC(CO)C(O)C(OC(N)=O)C1O)c1cnc[nH]1` (stereo unspecified), the T/C runs as follows: under setting [8], 114 % of control; (dose: 8.0 mg/kg/injection, schedule: Q01DX010 (sc), vehicle: saline) 92 % of control; (dose: 16.0 mg/kg/injection, schedule: Q01DX010 (sc), vehicle: saline) 89 % of control.
